Ratio and IC50 data for 11 molecules are collected here from ChEMBL document CHEMBL1124998, “3-(2-carboxyindol-3-yl)propionic acid derivatives: antagonists of the strychnine-insensitive glycine receptor associated with the N-methyl-D-aspartate receptor complex” (J Med Chem, 1990).

The structures appear in SMILES notation. Bounds are passed on as bounds.

Test [1] has as its target Glutamate NMDA receptor (Rattus norvegicus) (UniProt P35439+Q00959+Q00960+Q00961+Q62645+Q8VHN2+Q9R1M7). Kind of test: Selectivity ratio for CPP and gly NMDA binding. The format is protein-complex assay.
In test [2] the target is Glutamate NMDA receptor. As to the kind of experiment: Activity against rat cortical and hippocampal membrane N-methyl-D-aspartate glutamate receptor 1/2A/2B/2C/2D using [3H]CPP. The format is tissue-based, Hippocampus.
In test [3] the target is Glutamate NMDA receptor. Kind of test: Activity against rat cortical and hippocampal membrane strychnine-insensitive N-methyl-D-aspartate glutamate receptor 1 using [3H]-gly. The format is tissue-based, Hippocampus.
Another test is filed under the species Rattus norvegicus. As to the kind of experiment: Activity was determined by inhibition of glutamate stimulated accumulation of cyclic GMP in neonatal rat cerebral slices. It counts as functional.

`O=C(O)CCc1c(C(=O)O)[nH]c2ccc(Cl)cc12`: the Ratio in test [1] is 1.8. Further, the IC50 – broadly, the concentration needed to halve the response being measured – against Glutamate NMDA receptor [2] is 25 µM; against Glutamate NMDA receptor [3], 14 µM.
Taken in the same sequence, the figures for `O=C(O)CCc1c(C(=O)O)[nH]c2c(Cl)cccc12` were over 1, over 100 µM and 90 µM.
As to `O=C(O)c1cc(O)c2c(Cl)cc(Cl)cc2n1`, the Ratio in test [1] is 150. For the same molecule, the IC50 against Glutamate NMDA receptor [2] was 12 µM; on Glutamate NMDA receptor [3], 0.08 µM; in the test filed under Rattus norvegicus it was 2.5 µM.
Take `O=C(O)CCc1c(C(=O)O)[nH]c2cc(Cl)cc(Cl)c12`: the Ratio in test [1] turned out to be 2550. Also, the IC50 against Glutamate NMDA receptor [2] was determined as 358 µM; against Glutamate NMDA receptor [3], 0.14 µM; in the test filed under Rattus norvegicus, 5 µM.
On to `O=C(O)c1cc2c(Cl)cc(Cl)cc2[nH]1`, for which, in test [1], the Ratio is over 150. The results for the IC50 at Glutamate NMDA receptor [2] and at Glutamate NMDA receptor [3] were over 1000 µM and 6 µM, respectively.
`O=C(O)c1cc(O)c2ccc(Cl)cc2n1` [7-CHLOROKYNURENIC ACID]: in test [1], the Ratio came to 405. Besides, the results for the IC50 against Glutamate NMDA receptor [2], on Glutamate NMDA receptor [3] and in the test filed under Rattus norvegicus were 162 µM, 0.4 µM and 8 µM, respectively.
For `O=C(O)c1cc2ccccc2[nH]1` [INDOLE-2-CARBOXYLIC ACID], the Ratio in test [1] was 40. The IC50 against Glutamate NMDA receptor [2] stood at 4200 µM; at Glutamate NMDA receptor [3], 106 µM.
With `O=C(O)CCc1c(C(=O)O)[nH]c2cccc(Cl)c12`, the Ratio in test [1] was 10. Besides, the IC50 at Glutamate NMDA receptor [2] is 59 µM; against Glutamate NMDA receptor [3] it was 6 µM.
On the same counts, the results for `O=C(O)CCc1c(C(=O)O)[nH]c2ccccc12` are 1, 34 µM and 30 µM.
On the same counts, the results for `O=C(O)CCc1c(C(=O)O)[nH]c2cc(Cl)ccc12` are 105, 283 µM and 2.7 µM.
Consider `O=C(O)c1cc(=O)c2ccccc2[nH]1` [TRANSTORINE], for which it took 167 µM to reach half-maximal inhibition in the test filed under Rattus norvegicus (IC50).
